In article PMC6471523, “Biological Evaluation and Docking Analysis of Potent BACE1 Inhibitors from Boesenbergia rotunda” (Nutrients, 2019):
In brackets after ≈: the same amount, converted by molar mass.

Experiments:
chymotrypsin = test system: T1, chymotrypsin; experiment: Chymotrypsin absorbance inhibition assay; assay type: biochemical
T1 construct: purchased Sigma-Aldrich (St. Louis, MO, USA)
Description: (§1) Absorbance assays for trypsin, chymotrypsin, and elastase were estimated using N-benzoyl-ʟ-Arg-pNA, N-benzoyl-ʟ-Tyr-pNA, and N-succinyl-Ala-Ala-Ala-pNA as substrates, respectively. Enzyme, Tris-HCl buffer (0.05 M, in 0.02 M CaCl2, pH 8.2), and tested samples were incubated for 10 min at 25 °C then added to the substrate for 30 min at 37 °C. The absorbance was recorded at 410 nm. The inhibition ratio was obtained using the following equation:Inhibition (%) = {[1 − (A − B)]/control} × 100 where A was the absorbance of control (enzyme, assay buffer, and substrate) after 60 min of incubation, and B was the absorbance of the tested sample (assay buffer and sample solution) after 60 min of incubation.

BBB = settings: in vitro study; cited from earlier work
trypsin = experiment: Trypsin absorbance inhibition assay; assay type: biochemical
Description: as §1

Wister rats = settings: 100 mg/kg, 7 days; cited from earlier work
elastase = test system: T2, elastase; experiment: Elastase absorbance inhibition assay; assay type: biochemical
T2 construct: purchased Sigma-Aldrich (St. Louis, MO, USA)
Description: as §1

human recombinant TACE = test system: T3, human recombinant TACE; experiment: TACE (α-secretase) enzyme inhibitory assay; assay type: biochemical
T3 construct: purchased R&D Systems (Minneapolis, MN, USA)
Description: A human recombinant TACE (0.1 ppm in 25 mM Tris buffer), the substrate (APP peptide […] using EDANS/DABCYL), and samples were dissolved in an assay buffer, which were then combined and incubated for 60 min in the dark at 25 °C. The increase in fluorescence intensity produced by substrate hydrolysis was measured by using a microplate reader with excitation and emission wavelengths of 320 and 405 nm, respectively.

[1] = test system: APP/PS1 transgenic mouse model; settings: 40 mg/kg, 3-month period; cited from earlier work
[2] = test system: intracerebroventricular Aβ25–35-injected mice; settings: oral, 20 mg/kg, 8 days; cited from earlier work
BACE1 [3] = target: T4, BACE1 (Homo sapiens, UniProt P56817); experiment: BACE1 inhibition kinetics (Dixon and Lineweaver–Burk plots); assay type: biochemical; settings: for Inhibition Mode: Dixon and Lineweaver–Burk plots; for Ki: Dixon plot
T4 construct: purchased Invitrogen (Pan Vera, Madison, WI, USA)
T4 sequence (P56817 46-501): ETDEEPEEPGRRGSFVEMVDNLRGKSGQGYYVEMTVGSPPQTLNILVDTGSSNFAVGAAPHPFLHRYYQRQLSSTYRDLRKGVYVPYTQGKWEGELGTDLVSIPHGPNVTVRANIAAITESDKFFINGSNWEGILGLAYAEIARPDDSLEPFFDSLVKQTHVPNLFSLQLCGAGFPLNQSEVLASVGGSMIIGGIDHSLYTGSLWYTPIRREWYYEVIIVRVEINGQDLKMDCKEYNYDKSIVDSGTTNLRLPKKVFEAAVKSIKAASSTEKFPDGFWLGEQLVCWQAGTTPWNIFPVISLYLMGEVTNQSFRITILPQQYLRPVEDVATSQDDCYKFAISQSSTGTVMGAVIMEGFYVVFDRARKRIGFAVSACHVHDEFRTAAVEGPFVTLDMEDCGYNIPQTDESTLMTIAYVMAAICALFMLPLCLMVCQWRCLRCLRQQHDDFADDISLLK
Description: The dissociation constant (Ki) was obtained by Dixon plot and maximum reaction velocity (Vmax) and Michaelis–Menten constant (Km) values were determined by Lineweaver–Burk plot using SigmaPlot™ version 12.3 (Systat Software, Inc., San Jose, CA, USA).
The type of inhibition and kinetic analysis was determined using a Michaelis–Menten curve, Dixon plot, and Lineweaver–Burk plot (Figure 2). The three lines of the Dixon plots intersected on the x-axis of the same plot (Figure 2b,e,h). […] This pattern indicated non-competitive inhibitory activity against BACE1, thereby interacting with locations other than the active binding site for these compounds. For noncompetitive inhibition of enzymes, the Ki value of inhibitor is essentially the same numerical value as the IC50 [29].

HIV-1 protease = test system: HIV-1 protease; set-up: method as in earlier work; settings: cited from earlier work
[4] = test system: rat model of global cerebral ischemia-reperfusion; settings: oral, 10 mg/kg, 7 days; cited from earlier work
BACE1 [5] = target: T4, BACE1; experiment: In vitro BACE1 enzyme inhibitory assay (fluorescence); assay type: biochemical; settings: for IC50: 60 min, 25 °C, pH 4.5, mean ± SD of three experiments, read-out: IC50 (mean ± SD) against BACE1
Description: Enzyme assays for BACE1, TACE, chymotrypsin, trypsin, and elastase were carried out according to previously described methods [27]. Briefly, reaction mixtures containing human recombinant BACE1 (1.0 U/mL), a specific substrate (Rh-[sequence]-Quencher in 50 mM ammonium bicarbonate), and samples dissolved in an assay buffer (50 mM sodium acetate, pH 4.5) were incubated for 60 min at 25 °C in well plates. […] The inhibition ratio was obtained using the following equation:Inhibition (%) = [1 − (S − S0)/(C − C0)] × 100 where C was the fluorescence of control (enzyme, assay buffer, and substrate) after 60 min of incubation, C0 was the fluorescence of control at time 0, S was the fluorescence of tested samples (enzyme, sample solution, and substrate) after 60 min of incubation, and S0 was the fluorescence of the tested samples at time 0.

[6] = set-up: method as in PMID 28271112; settings: calculated; in Å2 (unit assumed); cited from earlier work
[7] = Physicochemical properties for BBB permeability prediction; settings: inferred from MW, PSA and clog P
Source text: However, few BACE1 inhibitors have been marketed to treat AD due to the difficulty in developing therapeutic agents that can efficiently cross the BBB and reach appropriate concentrations in the cerebral parenchyma, and, moreover, can do so without side effects. Recently, QSAR study approaches have been used to generate predictive models for BBB permeability. […] Cardamonin has a MW of 270.28, a PSA value calculated as 66.76, and a clog P of 4.54, obtained by determining the partition coefficient between n-octanol and water.

[8] = set-up: method as in PMID 29066742; settings: 10 mg/kg, 30 weeks; cited from earlier work

Compound | Inhibitory activity (%) Chymotrypsin (chymotrypsin; sample 10 μM) [%] | Inhibitory activity (%) Chymotrypsin (chymotrypsin; sample 100 μM) [%] | Inhibitory activity (%) Trypsin (trypsin; sample 10 μM) [%] | Inhibitory activity (%) Trypsin (trypsin; sample 100 μM) [%] | Toxicity or mutagenic effects after oral administration (Wister rats) | Inhibitory activity (%) Elastase (elastase; sample 10 μM) [%] | Inhibitory activity (%) Elastase (elastase; sample 100 μM) [%] | Inhibitory activity (%) TACE (human recombinant TACE; sample 10 μM) [%] | Inhibitory activity (%) TACE (human recombinant TACE; sample 100 μM) [%] | Inhibition Mode (BACE1 [3]) | Ki (BACE1 [3]) [µM] | IC50 HIV-1 protease activity (HIV-1 protease) [µg/mL] | IC50 (BACE1 [5]) [µM] | other results
O=C1CC(c2ccccc2)Oc2cc(O)cc(O)c21 (centres unmarked) [Pinocembrin, 5,7-dihydroxyflavanone] | 7.18 ± 1.87 | 8.61 ± 1.09 | 4.35 ± 0.26 | 4.96 ± 0.27 | did not induce any toxicity or mutagenic effects | 3.24 ± 0.19 | 2.56 ± 0.08 | 5.15 ± 0.98 | 6.95 ± 1.52 | Noncompetitive | 29.3 | > 100 | 27 ± 2.12 | BBB crossing in vitro (BBB): could cross the BBB by passive transport partly through P-glycoprotein; Effect on cognitive deficits and neurovascular unit [1]: attenuated cognitive deficits and protected the neurovascular unit; Effect on cognitive impairment [2]: significantly improved cognitive impairment; Effect on hippocampal inflammation, oxidative stress and apoptosis [4]: suppressed hippocampal inflammation, oxidative stress, and apoptosis
COc1cc(O)c2c(c1)OC(c1ccccc1)CC2=O (centres unmarked) [Pinostrobin, 5-hydroxy-7methoxyflavanone] | 3.29 ± 0.25 | 5.41 ± 0.49 | 3.19 ± 0.16 | 1.52 ± 0.05 | did not induce any toxicity or mutagenic effects | 5.21 ± 0.41 | 2.63 ± 0.37 | 8.53 ± 1.05 | 9.19 ± 1.20 | Noncompetitive | 30.9 | > 100 | 28.4 ± 1.96 | 
COc1cc(O)cc(O)c1C(=O)/C=C/c1ccccc1 [Cardamonin, 2′,4′-dihydroxy-6′-methoxychalcone] |  | 4.23 ± 0.55 |  | 3.74 ± 0.53 |  |  | 1.41 ± 0.19 |  | 2.69 ± 1.44 | Noncompetitive | 5.1 | 31.0 (≈ 115 µM) | 4.35 ± 0.38 | Inhibitory activity (%) Chymotrypsin (chymotrypsin; sample 50 μM): 6.20 ± 0.41%; polar surface area (PSA) [6]: 66.76; Inhibitory activity (%) Trypsin (trypsin; sample 50 μM): 1.13 ± 0.18%; Inhibitory activity (%) Elastase (elastase; sample 50 μM): 2.29 ± 0.41%; Inhibitory activity (%) TACE (human recombinant TACE; sample 50 μM): 1.38 ± 0.36%; Predicted BBB crossing [7]: predicted to cross the BBB; BACE1 IC50 relative to resveratrol (BACE1 [5]; comparison of IC50 values): three-fold higher; BACE1 inhibition relative to pinocembrin and pinostrobin (BACE1 [5]; comparison of IC50 values): six-fold more effective; Toxicity after chronic oral administration [8]: did not elicit any apparent toxicity
